The supplement of paper PMC10307832

What was measured:
Test in all cases: relative viability (nuclei count vs DMSO), 5 days (fraction); higher = more cells survive
[1] = test system: NCI-H1792
Summary of the method: (§1)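 Relative viability divides the nuclei count in treated wells by that in vehicle wells. Lung cancer cell lines were seeded in 1536-well plates, dosed by pin tool the next day, and fixed and stained after 5 days in one step with final 0.05% Triton X-100, 1% formaldehyde and 1 ug/ml Hoechst. Dosing was a single drug or a fixed anchor-drug dose plus five library-drug doses (not always all listed) in √10 steps, and values are medians of duplicate plates imaged at 4×.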

[2] = test system: NCI-H1793
Summary of the method: as §1

[3] = test system: A-427
Summary of the method: as §1

[4] = test system: HCC-366
Summary of the method: as §1

[5] = test system: NCI-H1944
Summary of the method: as §1

[6] = test system: UMC-11
Summary of the method: as §1

[7] = test system: LC-2-ad
Summary of the method: as §1

[8] = test system: LU99A
Summary of the method: as §1

[9] = test system: NCI-H2170
Summary of the method: as §1

[10] = test system: NCI-H2085
Summary of the method: as §1

[11] = test system: LXF-289
Summary of the method: as §1

With `O=c1cc(-c2cccc3c2Sc2ccccc2S3)oc(N2CCOCC2)c1` + CS(=O)(=O)N1CCN(Cc2cc3nc(-c4cccc5[nH]ncc45)nc(N4CCOCC4)c3s2)CC1 [Pictilisib] (partner 1 µM) the relative viability ([1]; first compound 0.8 µM) was 0.223, the relative viability ([1]; first compound 2.53 µM) was 0.277 and the relative viability ([1]; first compound 8 µM) was 0.238. It also gave a relative viability ([2]; first compound 0.08 µM) of 0.185, a relative viability ([2]; first compound 0.253 µM) of 0.301 and a relative viability ([2]; first compound 0.8 µM) of 0.303. For the same compound, the relative viability ([2]; first compound 2.53 µM) was 0.303, the relative viability ([2]; first compound 8 µM) was 0.334 and the relative viability ([3]; first compound 0.08 µM) was 0.818. It also gave a relative viability ([3]; first compound 0.253 µM) of 0.678, a relative viability ([3]; first compound 0.8 µM) of 0.634 and a relative viability ([3]; first compound 2.53 µM) of 0.623. It also gave a relative viability ([3]; first compound 8 µM) of 0.973, a relative viability ([4]; first compound 0.08 µM) of 0.138 and a relative viability ([4]; first compound 0.253 µM) of 0.129. For the same compound, the relative viability ([4]; first compound 0.8 µM) was 0.114, the relative viability ([4]; first compound 2.53 µM) was 0.122 and the relative viability ([4]; first compound 8 µM) was 0.158. The relative viability ([5]; first compound 0.08 µM) was 0.324, the relative viability ([5]; first compound 0.253 µM) was 0.352 and the relative viability ([5]; first compound 0.8 µM) was 0.29. It also gave a relative viability ([5]; first compound 8 µM) of 0.346, a relative viability ([6]; first compound 0.08 µM) of 0.815 and a relative viability ([6]; first compound 0.253 µM) of 1.09. The relative viability ([6]; first compound 0.8 µM) was 0.992, the relative viability ([6]; first compound 2.53 µM) was 0.752 and the relative viability ([6]; first compound 8 µM) was 1. For the same compound, the relative viability ([7]; first compound 0.08 µM) was 0.472, the relative viability ([7]; first compound 0.253 µM) was 0.545 and the relative viability ([7]; first compound 0.8 µM) was 0.465. It also gave a relative viability ([7]; first compound 2.53 µM) of 0.432, a relative viability ([7]; first compound 8 µM) of 0.425 and a relative viability ([8]; first compound 0.08 µM) of 0.294. For the same compound, the relative viability ([8]; first compound 0.253 µM) was 0.341, the relative viability ([8]; first compound 0.8 µM) was 0.378 and the relative viability ([8]; first compound 2.53 µM) was 0.332. For the same compound, the relative viability ([8]; first compound 8 µM) was 0.418, the relative viability ([9]; first compound 0.08 µM) was 0.31 and the relative viability ([9]; first compound 0.253 µM) was 0.342. It also gave a relative viability ([9]; first compound 0.8 µM) of 0.312, a relative viability ([9]; first compound 2.53 µM) of 0.287 and a relative viability ([9]; first compound 8 µM) of 0.275. For the same compound, the relative viability ([10]; first compound 0.08 µM) was 0.44, the relative viability ([10]; first compound 0.253 µM) was 0.586 and the relative viability ([10]; first compound 0.8 µM) was 0.476. It also gave a relative viability ([10]; first compound 2.53 µM) of 0.464, a relative viability ([10]; first compound 8 µM) of 0.494 and a relative viability ([11]; first compound 0.08 µM) of 0.777. The relative viability ([11]; first compound 0.253 µM) was 0.791, the relative viability ([11]; first compound 0.8 µM) was 0.896 and the relative viability ([11]; first compound 2.53 µM) was 0.747. The relative viability ([11]; first compound 8 µM) was 0.849.
